Measured values published in paper PMC3264756 (2011).

Molecular target: acetyl-CoA carboxylase (TbACC) (Trypanosoma brucei, UniProt Q57YR7)
Type: biochemical

CC(Oc1ccc(Oc2ncc(C(F)(F)F)cc2Cl)cc1)C(=O)O (stereo not shown) [haloxyfop]
EC50: 67 µM
